± gives the expanded uncertainty stated by the source.
Details: Liquid, Manometric method

Row | SMILES | vapor or sublimation pressure (283.15 K) [kPa] | vapor or sublimation pressure (293.15 K) [kPa] | vapor or sublimation pressure (303.15 K) [kPa] | vapor or sublimation pressure (313.15 K) [kPa] | vapor or sublimation pressure (323.15 K) [kPa] | vapor or sublimation pressure (333.15 K) [kPa] | vapor or sublimation pressure (343.15 K) [kPa] | vapor or sublimation pressure (346.65 K) [kPa] | vapor or sublimation pressure (287.15 K) [kPa] | vapor or sublimation pressure (296.35 K) [kPa] | vapor or sublimation pressure (305.35 K) [kPa] | vapor or sublimation pressure (313.45 K) [kPa] | vapor or sublimation pressure (323.05 K) [kPa] | vapor or sublimation pressure (332.95 K) [kPa] | vapor or sublimation pressure (343.05 K) [kPa] | vapor or sublimation pressure (352.85 K) [kPa] | vapor or sublimation pressure (363.05 K) [kPa] | vapor or sublimation pressure (372.85 K) [kPa]
1 | OCC(F)(F)F [2,2,2-trifluoroethanol] | 3.96 ± 0.22 | 7.25 ± 0.22 | 12.82 ± 0.23 | 21.83 ± 0.26 | 36.1 ± 0.3 | 57.08 ± 0.38 | 87.31 ± 0.46 | 100.8 ± 0.52 |  |  |  |  |  |  |  |  |  | 
2 | O [water] |  |  |  |  |  |  |  |  | 1.64 ± 0.21 | 2.81 ± 0.22 | 4.74 ± 0.22 | 7.51 ± 0.23 | 12.26 ± 0.26 | 19.69 ± 0.32 | 30.94 ± 0.42 | 46.73 ± 0.57 | 69.75 ± 0.8 | 100.32 ± 1.1

Source: the NIST ThermoML archive (doi:10.1021/je900738e)
